Data set [1] concerns the target human cloned 5-HT6 receptors (Homo sapiens, UniProt P50406).

Molecules are shown by their SMILES. Where a name gives a salt, the structure may show the parent alone.

Chain of human cloned 5-HT6 receptors (P50406 whole entry): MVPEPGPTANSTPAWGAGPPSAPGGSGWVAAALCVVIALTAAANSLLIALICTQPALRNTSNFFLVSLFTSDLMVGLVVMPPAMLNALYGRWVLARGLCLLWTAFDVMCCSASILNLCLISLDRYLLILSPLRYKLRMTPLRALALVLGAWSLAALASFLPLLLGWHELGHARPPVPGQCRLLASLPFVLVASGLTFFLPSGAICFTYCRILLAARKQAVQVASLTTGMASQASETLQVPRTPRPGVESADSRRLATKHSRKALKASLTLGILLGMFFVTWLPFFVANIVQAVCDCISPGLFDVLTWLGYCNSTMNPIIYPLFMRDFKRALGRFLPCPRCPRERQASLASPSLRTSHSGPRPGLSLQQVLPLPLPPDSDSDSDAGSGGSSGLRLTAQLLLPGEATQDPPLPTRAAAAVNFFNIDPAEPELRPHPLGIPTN

`O=S(=O)(Nc1ccc2c(c1)C(C1CCNCC1)=CCO2)c1cccc2ccccc12` [Example 16, N-(4-piperidin-4-yl-2H-chromen-6-yl)naphthalene-1-sulfonamide] came in with a Ki in data set [1] of 2 nM. The molecule `O=S(=O)(Nc1ccc2c(c1)C(C1CCNCC1)=CCO2)c1ccc(Cl)cc1` [Example 15, 4-chloro-N-(4-piperidin-4-yl-2H-chromen-6-yl)benzenesulfonamide] registered a melting point greater than 240 °C. The molecule also displayed a Ki in data set [1] of 2 nM. As to `O=S(=O)(Nc1ccc2c(c1)C(C1CCNCC1)=CCO2)c1ccccc1` [Example 14, N(4-Piperidin-4-yl-2H-chromen-6-yl)benzenesulfonamide Hemihydrate], the Ki in data set [1] stood at 1 nM. As for `O=S(=O)(Nc1ccc2c(c1)C(C1CCNCC1)CCO2)c1ccccc1` (centres unmarked) [Example 23, N(4-Piperidin-4-dihydro-2H-chromen-6-yl)benzenesulfonamid Hydrochloride], the Ki in data set [1] is 12 nM.

One may read the Ki as a measure of affinity in units of concentration, obtained from inhibition or displacement. Usually melting point stands for the temperature, or range, at which the solid turns liquid.
